Values after ≈ are worked out from the molar mass of the structure shown. Where a name gives a salt, the structure may show the parent alone. Read-outs that look alike come from different tables or passages of the source.
Assays:
E. faecalis AR-0671 = experiment: Broth microdilution MIC, E. faecalis AR-0671; format: cell-based, Enterococcus faecalis; settings: for MIC: Enterococcus faecalis
From the text: (§1) The multidrug-resistant S. aureus strain TCH 1516 [USA 300-HOU-MR] was obtained from the American Type Culture Collection (ATCC, Manassas, VA, USA) (Table 1). E. faecalis AR-0671, multidrug-resistant E. coli AR-0001, K. pneumoniae AR-0003, P. aeruginosa AR-1114, and A. baumannii AR-0273 strains were acquired from the Centers for Disease Control and Prevention (CDC) AR isolate bank (Table 1). Prior to the initiation of this study, all microbial strains were stored in commercial cryopreservation systems at a temperature of −80 °C. The strains were cultivated on Columbia sheep blood agar (Becton Dickinson, Franklin Lakes, NJ, USA) or potato dextrose agar (PDA) for Candida (Becton Dickinson, Franklin Lakes, NJ, USA).
(§2) The antimicrobial activity of 3-((3-hydroxyphenyl)amino)propanoic acid derivatives was assessed by using the broth microdilution method, following the guidelines outlined by the Clinical Laboratory Standards Institute (CLSI), with modifications. In brief, the compounds were dissolved in dimethyl sulfoxide (DMSO) to attain a final concentration of 25–30 mg/mL. Vancomycin hydrochloride (MedChem express, Cat. No. HY-17362), cefazolin (MedChem express, Cat. No. HY-B1892), and meropenem (MedChem express, Cat. No. HY-13678) were used as control antimicrobial drugs and were dissolved in DMSO as described before. Dilution series were prepared in deep 96-well microplates to achieve a two-fold concentration range of 0.25, 0.5, 1, 2, 4, 8, 16, 32, and 64 µg/mL, utilizing cation-adjusted Mueller–Hinton broth (CAMHB) as the growth medium. The microplates containing the dilution series were then inoculated with fresh cultures of each tested organism to reach a final concentration of 5 × 10^4 CFU (colony-forming units) of the test organism in media containing 1% DMSO and 1× drug concentration, with a volume of 200 µL per well. Wells that were inoculated with medium containing 1% DMSO served as positive controls. Subsequently, the microplates were incubated at 35 ± 1 °C for 18 ± 2 h. Following the incubation period, the plates were examined by using a manual microplate viewer (Sensititre Manual Viewbox, ThermoFisher Scientific, Waltham, MA, USA). […] All experiments were conducted in duplicate with three technical replicates for each condition.

A. baumannii AR-0273 = experiment: Broth microdilution MIC, A. baumannii AR-0273; format: cell-based, Acinetobacter baumannii; settings: Acinetobacter baumannii, AR0273; OXA-23; CAMHB, 18 ± 2 h; read-out: minimal inhibitory concentration (MIC) A. baumannii AR-0273
From the text: as §1, §2

S. aureus TCH 1516 = experiment: Broth microdilution MIC, S. aureus TCH 1516; format: cell-based; settings: Staphylococcus aureus
E. coli AR-0001 = experiment: Broth microdilution MIC, E. coli AR-0001; format: cell-based; settings: Escherichia coli, AR0001; multidrug-resistant, KPC-3; CAMHB, 18 ± 2 h; read-out: minimal inhibitory concentration (MIC) E. coli AR-0001
K. pneumoniae AR-0003 = experiment: Broth microdilution MIC, K. pneumoniae AR-0003; format: cell-based; settings: Klebsiella pneumoniae, AR0003; KPC-3; CAMHB, 18 ± 2 h; read-out: minimal inhibitory concentration (MIC) K. pneumoniae AR-0003
P. aeruginosa AR-1114 = experiment: Broth microdilution MIC, P. aeruginosa AR-1114; format: cell-based; settings: Pseudomonas aeruginosa, AR1114; IMP-15; CAMHB, 18 ± 2 h; read-out: minimal inhibitory concentration (MIC) P. aeruginosa AR-1114
FaDu cells = experiment: MTT cell viability at fixed 100 µM, FaDu cells; format: cell-based; settings: 24 h, described in words (Figure 2)
Description: Test compounds 2–25 were dissolved in hybridoma-grade dimethyl sulfoxide (Millipore, Sigma, Burlington, MA, USA) to prepare stock solutions at concentrations of 10–25 mg/mL. […] For in vitro anticancer activity screening, the compounds were thawed at room temperature, protected from light, and the aliquots were diluted in complete cell culture media to achieve a final concentration of 100 µM and used for the in vitro assays. The cytotoxicity assays were performed in triplicate.
FaDu cells were obtained from the American Type Culture Collection (Rockville, MD, USA). HEK293 cells were kindly provided by Dr. Iliev lab at the Jill Roberts Institute for Inflammatory Bowel Disease, Weill Cornel Medicine of Cornel University (New York, NY, USA). All cells were cultivated in Dulbecco’s Modified Eagle Medium/Nutrient Mixture F-12 (DMEM/F-12) (Gibco, Waltham, MA, USA), 10% fetal bovine serum (FBS) (Gibco, Waltham, MA, USA), 100 U/mL penicillin, and 100 μg/mL streptomycin (P/S) (Gibco, Waltham, MA, USA). Culturing conditions were maintained at 37 °C in a humidified atmosphere containing 5% CO2. The culture medium was refreshed every 2–3 days, and cells were passaged upon reaching 70–80% confluence.
The in vitro inhibitory effects of the compounds were assessed by using the MTT assay. Briefly, cells were plated in 96-well plates at a density of 1 × 10⁴ cells per well. After the cells were allowed to adhere overnight at 37 °C in 5% CO₂, they were treated with compounds at a concentration of 100 µM in triplicate. Following a 20 h incubation, the MTT reagent was added, and the cells were further incubated for 4 h. The resulting formazan was solubilized in anhydrous DMSO, and absorbance was measured at 570 nm by using a microplate reader. Cell viability was calculated by using the following formula: ([AE − AB]/[AC − AB]) × 100%, where AE, AC, and AB represent the absorbance values of experimental samples, untreated controls, and blank wells, respectively. Data analysis was performed by using GraphPad Prism or QuickCalcs.

[1] = AR0671, CAMHB, 18 ± 2 h, read-out: minimal inhibitory concentration (MIC) E. faecalis AR-0671
[2] = MRSA / USA300, mecA MRSA isolate, USA300 lineage, CAMHB, 18 ±, read-out: minimal inhibitory concentration (MIC) S. aureus TCH 1516

Row | SMILES | MIC (E. faecalis AR-0671; [1]) [µg/mL] | MIC (A. baumannii AR-0273) [µg/mL] | MIC (S. aureus TCH 1516; [2]) [µg/mL] | MIC (E. coli AR-0001) [µg/mL] | MIC (K. pneumoniae AR-0003) [µg/mL] | MIC (P. aeruginosa AR-1114) [µg/mL] | minimal inhibitory concentration (MIC) E. faecalis AR-0671 (E. faecalis AR-0671; CAMHB) [µg/mL] | post-treatment viability (MTT assay) (FaDu cells) | MIC (E. faecalis AR-0671; AR0671, read-out: minimal inhibitory concentration (MIC) E. faecalis AR-0671) [µg/mL] | MIC (S. aureus TCH 1516; MRSA / USA300, read-out: minimal inhibitory concentration (MIC) S. aureus TCH 1516) [µg/mL]
1 | COC(=O)CCN(CCC(=O)OC)c1cccc(O)c1 [Compound 3, Dimethyl 3,3′-((3-hydroxyphenyl)azanediyl)dipropionate] | > 64 | > 64 | > 64 | 32 (≈ 114 µM) | > 64 | > 64 |  | minimal cytotoxicity |  | 
2 | O=C(CCN(CCC(=O)NN=Cc1ccc(F)cc1F)c1cccc(O)c1)NN=Cc1ccc(F)cc1F [Compound 9, 3,3′-((3-Hydroxyphenyl)azanediyl)bis(N′-(2,4-difluorobenzylidene)propanehydrazide)] | > 64 | > 64 | > 64 | > 64 | > 64 | > 64 |  |  |  | 
3 | O=C(CCN(CCC(=O)NN=Cc1ccc(Cl)cc1)c1cccc(O)c1)NN=Cc1ccc(Cl)cc1 [Compound 11, 3,3′-((3-Hydroxyphenyl)azanediyl)bis(N′-(4-chlorobenzylidene)propanehydrazide)] | > 64 | > 64 | 64 (≈ 122 µM) | > 64 | > 64 | > 64 | >64 |  |  | 
4 | CN(C)c1ccc(/C=N/NC(=O)CCN(CCC(=O)N/N=C/c2ccc(N(C)C)cc2)c2cccc(O)c2)cc1 [Compound 12] | > 64 | 64 (≈ 118 µM) | 64 (≈ 118 µM) | > 64 | 64 (≈ 118 µM) | 64 (≈ 118 µM) |  | enhanced cytotoxic effects |  | 
5 | O=C(CCN(CCC(=O)N/N=C/c1ccco1)c1cccc(O)c1)N/N=C/c1ccco1 [Compound 15] | > 64 | 64 (≈ 146 µM) | > 64 | > 64 | > 64 | 64 (≈ 146 µM) |  | enhanced cytotoxic effects |  | 
6 | Cc1ccc(C)n1NC(=O)CCN(CCC(=O)Nn1c(C)ccc1C)c1cccc(O)c1 [Compound 23, 3,3′-((3-Hydroxyphenyl)azanediyl)bis(N-(2,5-dimethyl-1H-pyrrol-1-yl)propanamide)] | > 64 | > 64 | 64 (≈ 146 µM) | > 64 | > 64 | > 64 |  | reduced viability |  | 
7 | Cc1cc(C)n(C(=O)CCN(CCC(=O)n2nc(C)cc2C)c2cccc(O)c2)n1 [Compound 24, 3,3′-((3-Hydroxyphenyl)azanediyl)bis(1-(3,5-dimethyl-1H-pyrazol-1-yl)propan-1-one)] | > 64 | > 64 | > 64 | > 64 | > 64 | > 64 |  | reduced viability |  | 
8 | CN[C@H](CC(C)C)C(=O)N[C@H]1C(=O)N[C@@H](CC(N)=O)C(=O)N[C@H]2C(=O)N[C@H]3C(=O)N[C@H](C(=O)N[C@H](C(=O)O)c4cc(O)cc(O)c4-c4cc3ccc4O)[C@H](O)c3ccc(c(Cl)c3)Oc3cc2cc(c3O[C@@H]2O[C@H](CO)[C@@H](O)[C@H](O)[C@H]2O[C@H]2C[C@](C)(N)[C@H](O)[C@H](C)O2)Oc2ccc(cc2Cl)[C@H]1O [Vancomycin, Vancomycin hydrochloride, reference compound] |  |  |  |  |  |  |  |  | 4 | 2

The next lines start with results.

Row | MIC (E. faecalis AR-0671; [1]) [µg/mL] | MIC (A. baumannii AR-0273) [µg/mL] | MIC (S. aureus TCH 1516; [2]) [µg/mL] | MIC (E. coli AR-0001) [µg/mL] | MIC (K. pneumoniae AR-0003) [µg/mL] | MIC (P. aeruginosa AR-1114) [µg/mL] | minimal inhibitory concentration (MIC) E. faecalis AR-0671 (E. faecalis AR-0671; CAMHB) [µg/mL] | SMILES | post-treatment viability (MTT assay) (FaDu cells) | MIC (E. faecalis AR-0671; AR0671, read-out: minimal inhibitory concentration (MIC) E. faecalis AR-0671) [µg/mL] | MIC (S. aureus TCH 1516; MRSA / USA300, read-out: minimal inhibitory concentration (MIC) S. aureus TCH 1516) [µg/mL]
9 | 8 (≈ 17.6 µM) | > 64 | 32 (≈ 70.4 µM) | > 64 | > 64 | > 64 |  | Cc1nnc(SCC2=C(C(=O)O)N3C(=O)[C@@H](NC(=O)Cn4cnnn4)[C@H]3SC2)s1 [Cefazolin, cefazolin, reference compound] |  |  | 
10 | 8 (≈ 14.3 µM) | > 64 | 2 (≈ 3.59 µM) | 64 (≈ 115 µM) | > 64 | > 64 |  | O=C(CCN(CCC(=O)NN=Cc1cccc2ccccc12)c1cccc(O)c1)NN=Cc1cccc2ccccc12 [Compound 14, 3,3′-((3-Hydroxyphenyl)azanediyl)bis(N′-(naphthalen-1-ylmethylene)propanehydrazide)] |  |  | 
11 | 32 (≈ 82.2 µM) | > 64 | 16 (≈ 41.1 µM) | > 64 | > 64 | > 64 |  | CCC(C)=NNC(=O)CCN(CCC(=O)NN=C(C)CC)c1cccc(O)c1 [Compound 20, 3,3′-((3-Hydroxyphenyl)azanediyl)bis(N′-(butan-2-ylidene)propanehydrazide)] |  |  | 
12 | 32 (≈ 65.9 µM) | > 64 | 32 (≈ 65.9 µM) | > 64 | > 64 | > 64 |  | CC(=NNC(=O)CCN(CCC(=O)NN=C(C)c1ccccc1)c1cccc(O)c1)c1ccccc1 [Compound 21, 3-((3-Hydroxyphenyl)(3-oxo-3-(2-(1-phenylethylidene)hydrazineyl)propyl)amino)-N′-(1-phenylethylidene)propanehydrazide] |  |  | 
13 | 32 (≈ 49.7 µM) | > 64 | 8 (≈ 12.4 µM) | 16 (≈ 24.9 µM) | > 64 | > 64 |  | C/C(=N\NC(=O)CCN(CCC(=O)N/N=C(\C)c1ccc(S(N)(=O)=O)cc1)c1cccc(O)c1)c1ccc(S(N)(=O)=O)cc1 [Compound 22, 4,4′-(((3,3′-((3-Hydroxyphenyl)azanediyl)bis(propanoyl))bis(hydrazin-2-yl-1-ylidene))bis(ethan-1-yl-1-ylidene))dibenzenesulfonamide] |  |  | 
14 | 2 (≈ 5.22 µM) | > 64 | 2 (≈ 5.22 µM) | 8 (≈ 20.9 µM) | 64 (≈ 167 µM) | 32 (≈ 83.4 µM) |  | C[C@@H](O)[C@H]1C(=O)N2C(C(=O)O)=C(S[C@@H]3CN[C@H](C(=O)N(C)C)C3)[C@H](C)[C@H]12 [Meropenem, meropenem, reference compound] |  |  | 
